Laboratory results reported in US10736909B2, “Use of trehalose for treatment of neurological diseases” (JUNAXO, INC., priority 2016, dated 2020).
Read-outs that look alike come from different tables or passages of the source.

Key:
MPTP-lesioned mouse = conditions: 2% trehalose in drinking water; Sarkar et al. 2014; cited from earlier work
[1] = Plasma pharmacokinetics in macaques, 1 and 7 days oral administration; type: in vivo; conditions: for AUC(0-inf) / Cmax / Tmax / half-life / AUC(0-t): female, monkey, plasma, po, macaque plasma; for AUC(0-t): read-out: AUC0-24h
Experimental: Three female macaques (3.81-4.67 kg) received trehalose (2.67 and 5.34 g/kg/day, oral gavage in sterile water) for 7 days. Plasma samples were collected pre-dose and 15 min, 30 min, 1 h, 2 h, 4 h, 6 h, 12 h and 24 h post-dose on days 1 and 7 and analysed for trehalose levels using a validated LC-MS/MS method and plasma exposure time courses (FIG. 2) and pharmacokinetic parameters were calculated (Table 7).

α-synuclein (αSYN) = conditions: rodent models of PD; Tanji et al., He et al., Wu et al. 2015; cited from earlier work
[2] = Plasma, brain and CSF trehalose levels in macaques after 17 weeks administration; type: in vivo, cynomolgus monkeys (Macaca fascicularis); conditions: 2.67 g/kg/day p.o. 17 weeks; for concentration at 1 h: female, cynomolgus monkey, po, 1 h after final administration
Excerpt: Twenty-five (25), female cynomolgus monkeys (Macaca fascicularis, 8.0-9.3 years of age, 3.2-4.4 kg) were split into 3 groups (n=8-9/group) and received stereotaxic injection of AAV vectors,either a vector expressing mutant A53T human alpha-synculein (AAV1/2-A53T-alpha-synuclein) or an empty vector (AAV1/2-EV), Genedetect, Auckland, New Zealand) into the substantia nigra. The A53T aSyn expressed is of the human sequence the AAV1/2-EV is a control vector of the same serotype and viral construction. Precise stereotaxic coordinates for all surgeries were calculated prior to surgery from individual monkey MRI scans. Injections containing the AAV1/2-A53T-alpha-synuclein or empty vector were made at a speed of 0.5 μl/min and a volume of 7 μl (at a viral titre of 1.7×10^12 active particles per ml) into 4 sites of each hemisphere of the substantia nigra. Commencing on the day of surgery and continuing for 17 weeks, macaques received either vehicle (sterile drinking water) or trehalose (2.67 g/kg/day) administered as a single daily administration (2.67 g/kg/day, p.o). The macaques were then killed and striatal tissue from both hemispheres was collected and analysed for dopamine and dopamine transporter (DAT) levels. Substantia nigra tissue was collected and analysed for the number of TH^+ve cells and the amount of αSYN measured. Plasma, CSF and brain (cerebellum) samples were collected and trehalose levels analysed by LC-MS/MS.
Single plasma, brain and CSF samples were collected 1 h after the final administration of trehalose. One-hour post-dose corresponds to approximately the Tmax of orally administered trehalose in macaques. The plasma, brain and CSF trehalose levels were 2449±884 ng/ml, 129±35 ng/g and 33±9 ng/ml respectively.

[3] = tested on: Transgenic α-synuclein mouse; conditions: 2% trehalose in drinking water; Tanji et al. 2015; cited from earlier work
[4] = 2.67 g/kg/day, 2.67 g/kg/day p.o., Day 1
[5] = 2.67 g/kg/day, 2.67 g/kg/day p.o., Day 7
[6] = 5.34 g/kg/day, 5.34 g/kg/day p.o., Day 1
[7] = 5.34 g/kg/day, 5.34 g/kg/day p.o., Day 7

## OC[C@H]1O[C@H](O[C@H]2O[C@H](CO)[C@@H](O)[C@H](O)[C@H]2O)[C@H](O)[C@@H](O)[C@@H]1O [trehalose, (2R,3S,4S,5R,6R)-2-(Hydroxymethyl)-6-[(2R,3R,4S,5S,6R)-3,4,5-trihydroxy-6-(hydroxymethyl)oxan-2-yl]oxyoxane-3,4,5-triol]
MPTP-lesioned mouse
  Effect: Neuroprotection
[1]; [4]
  AUC(0-inf): 27400 ng·h/mL
  Cmax: 10900 ng/mL
  Tmax: 49.8 min
  half-life: 66 min
  AUC(0-t): 26700 ng·h/mL
[1]; [5]
  AUC(0-inf): 27400 ng·h/mL
  Cmax: 9580 ng/mL
  Tmax: 40.2 min
  half-life: 90 min
  AUC(0-t): 26000 ng·h/mL
[1]; [6]
  AUC(0-inf): 80000 ng·h/mL
  Cmax: 37000 ng/mL
  Tmax: 40.2 min
  half-life: 108 min
  AUC(0-t): 78900 ng·h/mL
[1]; [7]
  AUC(0-inf): 57200 ng·h/mL
  Cmax: 22400 ng/mL
  Tmax: 49.8 min
  half-life: 138 min
  AUC(0-t): 56500 ng·h/mL
[1]; macaques, oral administration, ~8 h post-dose
  trehalose in plasma ~8 h post-dose: No trehalose was measurable
α-synuclein (αSYN)
  levels of α-synuclein (αSYN): reduces
[2]
  correlation of trehalose level in the CSF with level in the brain: significantly correlated
[2]; CSF, read-out: CSF trehalose level
  concentration at 1 h: 33 ± 9 ng/mL
[2]; brain (cerebellum), read-out: brain trehalose level
  concentration at 1 h: 129 ± 35 ng/g
[2]; plasma, read-out: plasma trehalose level
  concentration at 1 h: 2450 ± 884 ng/mL
[3]
  Effect (autophagy): Increased
